How the values were obtained:
Test in all cases: relative viability (nuclei count vs DMSO), 5 days (fraction); higher = more cells survive
JZL-184 + Trametinib = compound: C1CN(CCC1C(C2=CC3=C(C=C2)OCO3)(C4=CC5=C(C=C4)OCO5)O)C(=O)OC6=CC=C(C=C6)[N+](=O)[O-] [JZL-184] + CC(=O)Nc1cccc(-n2c(=O)n(C3CC3)c(=O)c3c(Nc4ccc(I)cc4F)n(C)c(=O)c(C)c32)c1 [Trametinib] (partner 0.02 µM)
Outline: (§1)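 Relative viability equals treated-well nuclei counts divided by vehicle-well nuclei counts. Counts came from 4× images of lung cancer cell lines grown in 1536-well plates for 5 days after pin-tool dosing on the day after seeding. Dosing used one drug alone or a fixed anchor-drug dose plus five library-drug doses (not always all listed) in √10 steps, and values are medians of duplicate plates.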

JZL-184 + Pictilisib = compound: C1CN(CCC1C(C2=CC3=C(C=C2)OCO3)(C4=CC5=C(C=C4)OCO5)O)C(=O)OC6=CC=C(C=C6)[N+](=O)[O-] [JZL-184] + CS(=O)(=O)N1CCN(Cc2cc3nc(-c4cccc5[nH]ncc45)nc(N4CCOCC4)c3s2)CC1 [Pictilisib] (partner 1 µM)
Outline: as §1

JZL-184 + Crizotinib = compound: C1CN(CCC1C(C2=CC3=C(C=C2)OCO3)(C4=CC5=C(C=C4)OCO5)O)C(=O)OC6=CC=C(C=C6)[N+](=O)[O-] [JZL-184] + C[C@@H](Oc1cc(-c2cnn(C3CCNCC3)c2)cnc1N)c1c(Cl)ccc(F)c1Cl [Crizotinib] (partner 1 µM)
Outline: as §1

JZL-184 + AZD7762 = compound: C1CN(CCC1C(C2=CC3=C(C=C2)OCO3)(C4=CC5=C(C=C4)OCO5)O)C(=O)OC6=CC=C(C=C6)[N+](=O)[O-] [JZL-184] + NC(=O)Nc1cc(-c2cccc(F)c2)sc1C(=O)N[C@H]1CCCNC1 [AZD7762] (partner 0.2 µM)
Outline: as §1

JZL-184 + Olaparib = compound: C1CN(CCC1C(C2=CC3=C(C=C2)OCO3)(C4=CC5=C(C=C4)OCO5)O)C(=O)OC6=CC=C(C=C6)[N+](=O)[O-] [JZL-184] + O=C(c1cc(Cc2n[nH]c(=O)c3ccccc23)ccc1F)N1CCN(C(=O)C2CC2)CC1 [Olaparib] (partner 8 µM)
Outline: as §1

Row | Cell Line | relative viability (JZL-184 + Trametinib; first compound 0.04 µM) | relative viability (JZL-184 + Trametinib; first compound 0.4 µM) | relative viability (JZL-184 + Trametinib; first compound 1.265 µM) | relative viability (JZL-184 + Trametinib; first compound 4 µM) | relative viability (JZL-184 + Pictilisib; first compound 0.04 µM) | relative viability (JZL-184 + Pictilisib; first compound 0.4 µM) | relative viability (JZL-184 + Pictilisib; first compound 1.265 µM) | relative viability (JZL-184 + Pictilisib; first compound 4 µM) | relative viability (JZL-184 + Crizotinib; first compound 0.04 µM) | relative viability (JZL-184 + Crizotinib; first compound 0.4 µM) | relative viability (JZL-184 + Crizotinib; first compound 1.265 µM) | relative viability (JZL-184 + Crizotinib; first compound 4 µM) | relative viability (JZL-184 + AZD7762; first compound 0.04 µM) | relative viability (JZL-184 + AZD7762; first compound 0.4 µM) | relative viability (JZL-184 + AZD7762; first compound 1.265 µM) | relative viability (JZL-184 + AZD7762; first compound 4 µM) | relative viability (JZL-184 + Olaparib; first compound 0.04 µM) | relative viability (JZL-184 + Olaparib; first compound 0.4 µM) | relative viability (JZL-184 + Olaparib; first compound 1.265 µM) | relative viability (JZL-184 + Olaparib; first compound 4 µM)
1 | NCI-H838 | 0.65 | 0.569 | 0.543 | 0.477 | 0.53 | 0.449 | 0.499 | 0.482 | 1.05 | 0.885 | 0.941 | 0.76 | 1.01 | 0.896 | 0.929 | 0.915 | 0.994 | 0.737 | 0.766 | 0.722
2 | LC-2-ad | 0.94 | 0.896 | 0.93 | 0.881 | 0.546 | 0.388 | 0.658 | 0.461 | 0.695 | 0.454 | 0.481 | 0.42 | 0.909 | 0.8 | 0.853 | 0.829 | 0.79 | 0.682 | 0.696 | 0.686
3 | HCC-78 | 0.705 | – | 0.912 | 0.565 | 0.204 | 0.188 | 0.248 | 0.2 | 0.34 | 0.317 | 0.359 | 0.341 | 0.594 | – | 0.688 | 0.618 | 0.823 | – | 0.831 | 0.768
4 | LOU-NH91 | 0.793 | 0.754 | 0.848 | 0.754 | 0.535 | 0.471 | 0.514 | 0.532 | 0.757 | 0.738 | 0.771 | 0.769 | 0.785 | 0.754 | 0.81 | 0.733 | 1 | 0.902 | 0.957 | 0.889
5 | NCI-H1734 | 0.721 | 0.611 | 0.72 | 0.606 | 0.519 | 0.471 | 0.505 | 0.482 | 0.806 | 0.617 | 0.672 | 0.701 | 0.571 | 0.518 | 0.719 | 0.625 | 0.674 | 0.589 | 0.627 | 0.547
6 | NCI-H596 | 0.86 | 0.76 | 0.801 | 0.767 | 0.397 | 0.393 | 0.429 | 0.356 | 1.19 | 0.955 | 1.03 | 1.06 | 1.16 | 0.911 | 1.11 | 1.29 | 0.669 | 0.728 | 0.721 | 0.753
7 | NCI-H1755 | 0.748 | 0.747 | 0.802 | 0.77 | 0.432 | 0.339 | 0.545 | 0.401 | 0.933 | 0.894 | 0.835 | 0.793 | 0.397 | 0.379 | 0.456 | 0.433 | 0.812 | 0.896 | 0.891 | 0.895
8 | NCI-H647 | 0.455 | 0.41 | 0.562 | 0.504 | 0.495 | 0.294 | 0.566 | 0.468 | 1.36 | 0.956 | 1 | 1.02 | 0.45 | 0.391 | 0.426 | 0.451 | 0.654 | 0.481 | 0.471 | 0.564

From the supplement of paper PMC10307832
